Measurements: paper PMC2542349, “Pharmacokinetic and metabolic effects of American ginseng (Panax quinquefolius) in healthy volunteers receiving the HIV protease inhibitor indinavir” (BMC Complementary and Alternative Medicine, 2008)
Several values for one entry are separate records, joined by “and”; a condition that tells them apart may be missing. Equal values may be shown once. Read-outs that look alike come from different tables or passages of the source.

Tests used:
[1] = test system: healthy volunteers; settings: cited from earlier work
[2] = test system: healthy volunteers; test: Hyperinsulinemic euglycemic clamp (glucose utilization M, insulin sensitivity M/I); type: in vivo, human
Experimental: Peripheral sensitivity to glucose was assessed by the hyperinsulinemic euglycemic clamp technique. Subjects were admitted to the GCRC in the afternoon prior to the clamp procedure and maintained on a eucaloric diet (50% carbohydrate, 30% fat, and 20% protein). After an overnight fast, an intravenous catheter was placed in the antecubital vein for infusion of glucose and insulin. A second catheter for blood sampling was inserted in a dorsal vein of the hand in a retrograde fashion. The hand was placed into a 50°C warming box to "arterialize" the samples [20]. After baseline blood samples were obtained, a primed, continuous infusion of regular insulin (40 mU/m^2/min) was started, followed by a constant infusion of 20% dextrose at a variable rate, based on 5-minute measurements of blood glucose, in order to maintain blood glucose concentrations at each subject's baseline level ± 5%. Infusion continued for a total of 180 minutes.
Glucose utilization (M) was calculated as the average glucose infusion rate (milligrams of glucose/kilograms of FFM/minute) during the last 60 minutes of the infusion (i.e. steady state portion). FFM was derived from the baseline evaluation by dual energy X-ray absorptiometry (DXA).
During the final 60 minutes of the insulin clamp procedure, samples were obtained at 10 minutes intervals to determine insulin concentrations. M divided by the average insulin concentration in the final 60 minutes (I), which represents the amount of glucose metabolized per unit of insulin, was used as the primary measure of insulin sensitivity. […] Fasting serum glucose and homeostasis model assessment of insulin resistance (HOMA-IR), a widely used marker of insulin sensitivity, were assessed prior to the insulin clamp procedure at each of the inpatient study visits.
We then multiplied this value by 10^6 for ease of interpretation.

[3] = for Cmin: GM (95%CI)
[4] = test system: healthy volunteers; test: Safety assessment in healthy volunteers; type: in vivo, human
From the text: There were no serious adverse events. Three subjects developed transaminitis. In one subject (as previously mentioned), an AST elevation 3 times the upper limit of normal (Grade 2) after 3 days of IDV required study discontinuation. Three subjects were noted to have mild elevations in bilirubin. […] One patient reported an episode of vomiting and one subject reported dyspepsia after dose administration. All laboratory abnormalities and symptoms normalized after discontinuation of the study drugs. With the exception of the Grade 2 transaminites, all adverse events occurred during the co-administration of IDV and AG.

[5] = clinical; settings: human, plasma, oral
[6] = test system: healthy volunteers; test: Fasting serum glucose, HOMA-IR and body weight at inpatient visits; type: in vivo, human
Experimental: Body composition, including fat-free mass (FFM), was assessed at baseline using dual x-ray absorptiometry (Hologic-QDR 4500W, Hologic Co, Bedford, MA, intra-subject CV < 2%). BMI was assessed during each inpatient admission and was calculated as the weight in kilograms/height in meters squared.
During the final 60 minutes of the insulin clamp procedure, samples were obtained at 10 minutes intervals to determine insulin concentrations. M divided by the average insulin concentration in the final 60 minutes (I), which represents the amount of glucose metabolized per unit of insulin, was used as the primary measure of insulin sensitivity. During the second and third inpatient visits, the morning dose of IDV (and AG for the third inpatient visit) was given immediately prior to the beginning of the insulin clamp procedure. Fasting serum glucose and homeostasis model assessment of insulin resistance (HOMA-IR), a widely used marker of insulin sensitivity, were assessed prior to the insulin clamp procedure at each of the inpatient study visits.

- difference in IDV AUC2–3 (IDV alone vs IDV and AG) ([3]; 10 subjects, p = 0.22): 430 ± 330 ng·h/mL
- Cmin ([3]; IDV + AG (Day 22), n = 13): 62.78 (39.72–99.24) ng/mL
- Cmin ([3]; IDV alone (Day 7), n = 13): 61.97 (42.72–89.88) ng/mL
- AUC0–8 Day 22/Day 7 Geometric Mean Ratio (90% CI) ([3]; IDV with vs without AG, n = 13): 0.89 (0.72–1.08)
- Cmax Day 22/Day 7 Geometric Mean Ratio (90% CI) ([3]; IDV with vs without AG, n = 13): 1.00 (0.77–1.29)
- tmax Day 22/Day 7 Geometric Mean Ratio (90% CI) ([3]; IDV with vs without AG, n = 13): 0.75 (0.53–1.06)
- AUC [5]: 1920 ± 483 ng·h/mL
- AUC ([5]; 800 mg): 2350 ± 389 ng·h/mL
- Cmax ([5]; 800 mg): 5620 ng/mL
- Tmax ([5]; 800 mg): 58.8 min
SMILES: CC(C)(C)NC(=O)[C@@H]1CN(Cc2cccnc2)CCN1C[C@@H](O)C[C@@H](Cc1ccccc1)C(=O)N[C@H]1c2ccccc2C[C@H]1O [IDV, Indinavir]
- decrease in insulin sensitivity ([1]; healthy volunteers, IDV 800 mg q 8 hours): 17%
- decrease in insulin sensitivity ([1]; single dose of 1200 mg): 34%
- average decrease in insulin sensitivity (M/I) compared to baseline ([2]; after 3 days of IDV 800 mg q8h, n = 11, p = 0.03): 14.8 ± 5.9% and 15%
- insulin sensitivity (M/I), mean ([2]; after 3 days of IDV, n = 11, mean ± SEM, baseline 0.113 ± 0.012): 0.096 ± 0.014 mg/kg FFM/min per μU/ml of insulin
- average glucose utilization (M) ([2]; after 3 days of IDV, n = 11, mean ± SEM, baseline 7.73 ± 0.75, p = 0.005): 6.32 ± 0.78 mg/kg FFM/min
- M/I divided by the IDV AUC2–3 (insulin sensitivity per unit of plasma IDV) ([2]; post hoc, 10 subjects, IDV alone vs IDV + AG, p = 0.03): 60.9 ± 15.4 mg Glucose·10^6/kg FFM/min/μU/ml of insulin/ng·hr/mL IDV
- M (multiplied times 10^6) divided by the IDV AUC2–3 ([2]; post hoc, 10 subjects, IDV alone vs IDV plus AG, p = 0.05): 4240.6 ± 1180.0 mg Glucose·10^6/kg FFM/min/ng·hr/mL IDV
- Glucose utilization (M), mean ([2]; second (IDV alone) vs third (IDV + AG) clamp, ten subjects, mean ± SEM, p = 0.62): 6.68 ± 0.76 mg/kg FFM/min
- insulin sensitivity (M/I), mean ([2]; second (IDV alone) vs third (IDV + AG) clamp, ten subjects, mean ± SEM, p = 0.72): 0.102 ± 0.013 mg/kg FFM/min per μU/ml of insulin
- tolerability ([4]; healthy volunteers): well tolerated
- AST elevation ([4]; one subject, Grade 2, after 3 days of IDV, required study discontinuation): 3 times the upper limit of normal
- Fasting glucose ([6]; before vs after 2 weeks of AG, p = 0.65): 93.0 ± 1.4 mg/dL
- HOMA-IR ([6]; before vs after 2 weeks of AG, p = 0.95): 1.4± 0.25
- HOMA-IR ([6]; second admission (after 3 days IDV), baseline 1.34 ± 0.32, p = 0.97): 1.34 ± 0.23
- Fasting glucose ([6]; second admission (after 3 days IDV), baseline 92.4 ± 1.8, p = 0.27): 95.0 ± 2.4 mg/dL
